Values quoted from earlier work, collected in US20160199317A1, “ESTRADIOL CONTAINING TRANSDERMAL DRUG DELIVERY SYSTEMS AND COMPOSITIONS” (3M INNOVATIVE PROPERTIES COMPANY, priority 2013, published 2016).

Details: background statement

half-life: about one
SMILES: C[C@]12CC[C@@H]3c4ccc(O)cc4CC[C@H]3[C@@H]1CC[C@@H]2O [estradiol, estra-1,3,5(10)-triene-3,17β-diol]
